# Where two headings read alike, the source gives them in different places.
# What was measured:
# USP1/UAF1 enzyme = USP1/UAF1 enzyme (Homo sapiens, UniProt O94782); test: USP1/UAF1 deubiquitination assay (ubiquitin-rhodamine 110 substrate); type: biochemical; conditions: read-out: USP1 IC50 (Ub-Rho)
# Method in brief: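 Cleavage of 150 nM ubiquitin-rhodamine 110 by 0.05 nM USP1/UAF1 was followed as fluorescence (Ex480/Em540, kinetic, 30 min) in Tris-HCl pH 7.8 buffer with EDTA, BSA, DTT and Tween-20. Compounds, top 10 μM, were preincubated with enzyme 10 min; % inhibition against no-enzyme and DMSO wells gave four-parameter IC50s.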
# [1] = tested on: Ub-PCNA levels in the nucleus of ES2 cells (USP1 activity); test: ES2 Ub-PCNA immunofluorescence (IF) assay; type: cell-based; conditions: Homo sapiens, ES-2; ES2 cells, 3 hours, Ub-PCNA immunofluorescence; read-out: USP1 IC50 (Ub-PCNA)
# Procedure: USP1 is a deubiquitinating enzyme that removes ubiquitin from mono-ubiquitinated Proliferating Cell Nuclear Antigen (Ub-PCNA). The levels of Ub-PCNA in the nucleus of cells can be used to assess the activity of USP1. An immunofluorescence assay can be established to monitor Ub-PCNA levels in the ovarian cancer cell line, ES2.
# An assay can be performed by first plating 5000 ES2 cells per well in black 96 well plates (Corning #3904) and then incubating overnight at 37° C. and 5% CO2. Compounds, resuspended in DMSO, can be added to the cells, to a final DMSO concentration of 0.3%. Plates can be incubated at 37° C. and 5% CO2 for 3 hours.
# Cells can be then fixed and stained by first removing the media from each plate and fixing the cells with −20° C. methanol for 5 minutes at room temperature. Fixation plates can be washed with Tris buffered saline with tween (Boston Bioproducts #IBB-855) 5 times for 5 minutes each. Plates can be blocked for 1 hour with 50 μl of Odyssey blocking buffer (Licor #327-50000) at room temperature with rocking. Block can be removed from all wells and 50 μl of primary antibody was added to each well. Ub-PCNA ab (Cell Signaling Technology #13439) can be diluted at 1:400 in Odyssey blocking buffer. Plates can be sealed and incubated overnight at 4° C. Primary antibodies can be removed from the plates and plates can be washed with Tris buffered saline with tween 5 times for 5 minutes. Plates can be stained for 1 hour at room temperature with rocking with 50 μl of secondary antibodies diluted 1:10,000 in Odyssey blocking buffer at room temperature (anti-rabbit Alexa 488). Antibodies can be removed from the plates and plates can be washed with Tris buffered saline with tween 3 times for 5 minutes. Plates can be washed once with DAPI (Chemometec #910-3012) stain diluted 1:5000 (Stock solution of 500 μg/ml) in tris buffered saline with tween for 5 minutes. DAPI stain can be removed and plates can be washed one additional time for 5 minutes with tris buffered saline with tween. Wash can be removed from the plate and 100 μl tris buffered saline with tween can be added back to all wells, Plates can be sealed with Foil seals or black plate seals and plates can be stored at 4° C. until they can be imaged.
# Imaging of the plates can be performed by first locating the nuclei using the DAPI stain. A mask can be created by drawing a circle slightly smaller than each nucleus. Ub-PCNA intensities can be measured for each individual nucleus counted. A histogram of all Ub-PCNA nuclear intensities measured in untreated wells can be generated and a 95% cutoff can be established. This 95% cutoff can be used to determine the number of Positive cells that have Ub-PCNA values higher than the 95% cutoff. The number of positive cells can be expressed as a percentage by dividing by the total number of cells in the well. This percent positive value can be used to graph all data and to determine AC50 values.
# USP1 is a deubiquitinating enzyme that removes ubiquitin from mono-ubiquitinated
# Proliferating Cell Nuclear Antigen (Ub-PCNA). The levels of Ub-PCNA in the nucleus of cells was used to assess the activity of USP1. An immunofluorescence assay was established to monitor Ub-PCNA levels in the ovarian cancer cell line, ES2.
# This assay was performed by first plating 5000 ES2 cells per well in black 96 well plates (Corning #3904) and then incubated overnight at 37° C. and 5% CO2. Compounds, resuspended in DMSO, were added to the cells, to a final DMSO concentration of 0.3%. Plates were incubated at 37° C. and 5% CO2 for 3 hours.
# Cells were then fixed and stained by first removing the media from each plate and fixing the cells with −20° C. methanol for 5 minutes at room temperature. Following fixation plates were washed with Tris buffered saline with tween (Boston Bioproducts ABB-855) 5 times for 5 minutes each. Plates were blocked for 1 hour with 50μ.1 of Odyssey blocking buffer (Licor #327-50000) at room temperature with rocking. […]
# [2] = ADME solubility determination in PBS at pH 2.0 and pH 7.4; type: physicochemical; conditions: phosphate buffered saline, 25 °C, thermodynamic from solid
# Method in brief: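 Solubility was read by LC-MS/MS on centrifuged supernatants, calibrated to a known-concentration standard and corrected for dilution. Compound, dried down from 10 mM DMSO stock, was equilibrated 24 h at 25° C with shaking in PBS at pH 2.0 or pH 7.4.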
# [3] = Liver microsomal metabolic stability, rat liver microsomes (RLM); conditions: rat, liver microsomes, t1/2 (min) in RLM, 1 μM compound, 1 mg/mL microsomes, NADPH
# Procedure: (§1) Samples were prepared by adding 222.5 μL of a master solution (100 mM phosphate buffer and 1 mg/mL liver microsomes (HLM or RLM)) and 25 μL of a 10 mM NADPH solution to incubation plates, which were then warmed for 10 min. Each compound was separately dissolved in DMSO to prepare 10 mM stock solutions, which were then diluted to 100 μM with acetonitrile. A reaction was started by adding 2.5 μL of the 100 μM solution of each compound to separate incubation plates such that the final concentration of for each compound in each plate was 1 μM.
# (§2) 25 μL aliquots of each sample were taken at 0.5, 5, 10, 15, 20 and 30 minutes, and the reaction was stopped by adding 5 volumes of cold acetonitrile with IS (100 nM alprazolam, 200 nM caffeine and 100 nM tolbutamide). The samples were then centrifuged at 3,220 G for 30 minutes, and 100 μL of the supernatant fluid was mixed with 100 μL of ultra-pure H2O.
# (§3) The samples were then analyzed by LC-MS/MS. Peak areas were determined from extracted ion chromatograms. Slope values (k) were determined by linear regression of the natural logarithm of the remaining percentage of the compound vs. incubation time curve. The in vitro half-life (in vitro t1/2) was determined from the slope value using the following equation:
# [4] = Liver microsomal metabolic stability, human liver microsomes (HLM); conditions: human, liver microsomes
# Procedure: as §1, §2, §3
# [5] = pH 2, aqueous buffer, PBS pH 2.0, 25° C., read-out: Solubility at pH 2.0
# [6] = pH 7.4, aqueous buffer, PBS pH 7.4, 25° C., read-out: Solubility at pH 7.4
# Chain of USP1/UAF1 enzyme (O94782 whole entry): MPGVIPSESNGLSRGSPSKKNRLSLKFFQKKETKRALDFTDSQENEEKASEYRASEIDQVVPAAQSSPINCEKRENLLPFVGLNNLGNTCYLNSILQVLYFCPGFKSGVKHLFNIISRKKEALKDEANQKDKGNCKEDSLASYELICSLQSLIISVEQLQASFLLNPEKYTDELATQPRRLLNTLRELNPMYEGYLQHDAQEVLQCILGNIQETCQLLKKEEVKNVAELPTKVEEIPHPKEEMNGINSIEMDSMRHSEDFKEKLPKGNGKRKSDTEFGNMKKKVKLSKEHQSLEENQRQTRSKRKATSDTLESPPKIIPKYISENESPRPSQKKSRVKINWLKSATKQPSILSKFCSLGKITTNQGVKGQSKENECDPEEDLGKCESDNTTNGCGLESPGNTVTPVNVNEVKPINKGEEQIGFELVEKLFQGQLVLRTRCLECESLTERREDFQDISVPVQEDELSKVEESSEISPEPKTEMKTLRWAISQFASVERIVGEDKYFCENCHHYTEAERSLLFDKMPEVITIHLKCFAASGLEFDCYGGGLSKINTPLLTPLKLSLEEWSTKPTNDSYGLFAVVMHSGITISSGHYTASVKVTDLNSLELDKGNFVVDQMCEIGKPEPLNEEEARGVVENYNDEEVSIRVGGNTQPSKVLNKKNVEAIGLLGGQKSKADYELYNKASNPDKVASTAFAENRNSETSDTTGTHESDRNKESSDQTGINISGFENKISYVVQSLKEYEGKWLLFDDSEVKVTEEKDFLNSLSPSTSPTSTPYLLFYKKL
# Chain of USP1/UAF1 enzyme (Q8TAF3 whole entry partner): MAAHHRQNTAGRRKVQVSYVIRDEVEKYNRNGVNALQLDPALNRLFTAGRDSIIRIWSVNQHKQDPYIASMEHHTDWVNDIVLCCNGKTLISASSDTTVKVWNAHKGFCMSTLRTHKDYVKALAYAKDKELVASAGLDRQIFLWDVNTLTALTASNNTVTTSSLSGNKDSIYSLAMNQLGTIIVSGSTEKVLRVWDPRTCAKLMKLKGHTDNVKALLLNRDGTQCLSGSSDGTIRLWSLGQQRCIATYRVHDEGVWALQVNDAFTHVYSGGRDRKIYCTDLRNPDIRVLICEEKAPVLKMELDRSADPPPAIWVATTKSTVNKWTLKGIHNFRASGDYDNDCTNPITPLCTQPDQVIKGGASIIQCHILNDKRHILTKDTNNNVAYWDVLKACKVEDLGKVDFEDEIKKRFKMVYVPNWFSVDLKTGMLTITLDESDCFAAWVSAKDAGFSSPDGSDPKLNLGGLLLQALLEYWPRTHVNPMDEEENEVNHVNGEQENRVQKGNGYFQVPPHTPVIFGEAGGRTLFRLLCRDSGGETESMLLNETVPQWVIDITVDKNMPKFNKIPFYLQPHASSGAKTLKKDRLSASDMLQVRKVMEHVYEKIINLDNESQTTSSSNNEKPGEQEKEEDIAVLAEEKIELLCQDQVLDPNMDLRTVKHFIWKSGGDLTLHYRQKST
Compound,IC50 (USP1/UAF1 enzyme),IC50 [1],"solubility at 24 h [2, 5]","solubility at 24 h [2, 6]",half-life at 1 μM [3],half-life at 1 μM [4]
CCn1cc(C(F)(F)F)nc1-c1ccc(CN2C(=O)CCn3nc(-c4c(Cl)cnn4C(C)C)cc32)cc1 [Example 97],< 0.1 µM,< 0.1 µM,< 10 µM,< 10 µM,> 25 min,> 25 min
CCn1cc(C(F)(F)F)nc1-c1ccc([C@@H](C)N2C(=O)CCn3nc(-c4c(OC)ncnc4C4CC4)cc32)cc1 [Example 125],< 0.1 µM,< 0.1 µM,≥ 10 µM,< 10 µM,> 25 min,> 25 min
"CCn1cc(C(F)(F)F)nc1-c1ccc(CN2C(=O)CCn3nc(-c4c(OC)ncnc4C4CC4)cc32)cc1 [Example 71, 2-(4-cyclopropyl-6-methoxypyrimidin-5-yl)-4-(4-(1-ethyl-4-(trifluoromethyl)-1H-imidazol-2-yl)benzyl)-6,7-dihydropyrazolo[1,5-α]pyrimidin-5(4H)-one]",< 0.1 µM,< 0.1 µM,< 10 µM,< 10 µM,> 25 min,> 25 min
CCn1cc(C(F)(F)F)nc1-c1ccc([C@H](C)N2C(=O)CCn3nc(-c4c(OC)ncnc4C4CC4)nc32)cc1 [Example 183],< 0.1 µM,< 0.1 µM,≥ 10 µM,≥ 10 µM,> 25 min,< 25 min
CCn1cc(C(F)(F)F)nc1-c1ccc(CN2C(=O)CCn3nc(-c4c(Cl)cnn4C(C)COC)cc32)cc1 (stereo not drawn) [Example 151],< 0.1 µM,< 0.1 µM,< 10 µM,< 10 µM,< 25 min,< 25 min
"CC(C)n1cc(C(F)(F)F)nc1-c1ccc(CN2C(=O)CCn3nc(-c4c(Cl)cnn4C(C)C)cc32)cc1F [Example 20, 2-(4-chloro-1-isopropyl-1H-pyrazol-5-yl)-4-(3-fluoro-4-(1-isopropyl-4-(trifluoromethyl)-1H-imidazol-2-yl)benzyl)-6,7-dihydropyrazolo[1,5-a]pyrimidin-5(4H)-one]",< 0.1 µM,< 0.1 µM,< 10 µM,< 10 µM,> 25 min,> 25 min
"CCn1cc(C(F)(F)F)nc1-c1ccc(CN2C(=O)CCn3nc(-c4c(C)cnn4C(C)C)cc32)cc1 [Example 9, 4-(4-(1-ethyl-4-(trifluoromethyl)-1H-imidazol-2-yl)benzyl)-2-(1-isopropyl-4-methyl-1H-pyrazol-5-yl)-6,7-dihydropyrazolo[1,5-a]pyrimidin-5(4H)-one]",< 0.1 µM,< 0.1 µM,≥ 10 µM,≥ 10 µM,< 25 min,< 25 min
CCn1cc(C(F)(F)F)nc1-c1ccc([C@H](C)N2C(=O)CCn3nc(-c4c(OC)ncnc4C4CC4)nc32)cc1F [Example 190],< 0.1 µM,< 0.1 µM,≥ 10 µM,≥ 10 µM,> 25 min,> 25 min
COc1cc(CN2C(=O)CCn3nc(-c4c(OC)ncnc4C(C)C)nc32)ccc1-c1nc(C(F)(F)F)cn1C(C)C [Example 46],0.1 to 0.5 µM,0.1 to 0.5 µM,≥ 10 µM,≥ 10 µM,> 25 min,> 25 min
Cc1cc(C(F)(F)F)nn1-c1ccc(CN2C(=O)CCn3nc(-c4c(Cl)cnn4C(C)C)cc32)cc1F [Example 104],< 0.1 µM,0.1 to 0.5 µM,< 10 µM,< 10 µM,> 25 min,> 25 min
CCn1cc(C(F)(F)F)nc1-c1c(Cl)cc(CN2C(=O)CCn3nc(-c4c(OC)ncnc4C4CC4)cc32)cc1OC [Example 145],< 0.1 µM,< 0.1 µM,< 10 µM,< 10 µM,< 25 min,< 25 min
CCn1cc(C(F)(F)F)nc1-c1ccc(C(C)N2C(=O)CCn3nc(-c4c(OC)ncnc4C4CC4)cc32)cc1 (stereo not drawn) [Example 114],< 0.1 µM,0.1 to 0.5 µM,≥ 10 µM,≥ 10 µM,< 25 min,> 25 min
CCn1cc(C(F)(F)F)nc1-c1ccc(CN2C(=O)CCn3nc(-c4c(Cl)cnn4C4(COC)CC4)cc32)cc1 [Example 159],< 0.1 µM,0.1 to 0.5 µM,< 10 µM,< 10 µM,< 25 min,> 25 min
Cc1cnn(C(C)C)c1-c1cc2n(n1)CCCN2Cc1ccc(-c2nc(C(F)(F)F)cn2C(C)C)cc1 [Example 54],< 0.1 µM,< 0.1 µM,≥ 10 µM,< 10 µM,< 25 min,< 25 min
CCn1cc(C(F)(F)F)nc1-c1ccc(C(C)N2CCCn3nc(-c4c(Cl)cnn4C(C)C)cc32)cc1 (stereo not drawn) [Example 65],< 0.1 µM,< 0.1 µM,< 10 µM,< 10 µM,< 25 min,< 25 min
"CCn1cc(C(F)(F)F)nc1-c1ccc(N(CCO)C2CCCn3nc(-c4c(Cl)cnn4C(C)C)cc32)cc1F (stereo not drawn) [Example 331, 2-((2-(4-chloro-1-isopropyl-1H-pyrazol-5-yl)-4,5,6,7-tetrahydropyrazolo[1,5-α]pyridin-4-yl)(4-(1-ethyl-4-(trifluoromethyl)-1H-imidazol-2-yl)-3-fluorophenyl)amino)-ethan-1-ol]",< 0.1 µM,< 0.1 µM,< 10 µM,< 10 µM,< 25 min,< 25 min
CC(C)n1ncc(Cl)c1-c1cc2n(n1)CCC(=O)N2Cc1ccc(-c2ncccc2N(C)C)cc1 [Example 321],< 0.1 µM,< 0.1 µM,≥ 10 µM,< 10 µM,< 25 min,< 25 min
"COc1ncnc(C2CC2)c1-c1cc2n(n1)CCC(C)N2Cc1ccc(-c2nc(C(F)(F)F)cn2C)cc1 (racemic) [Example 48, 2-(4-cyclopropyl-6-methoxypyrimidin-5-yl)-5-methyl-4-(4-(1-methyl-4-(trifluoromethyl)-1H-imidazol-2-yl)benzyl)-4,5,6,7-tetrahydropyrazolo[1,5-α]pyrimidine]",< 0.1 µM,< 0.1 µM,≥ 10 µM,≥ 10 µM,< 25 min,< 25 min
